Measurements: US7205326B2, “Aniline derivatives, their manufacture and use as pharmaceutical agents” (Hoffmann-La Roche Inc., priority 2003, dated 2007)

Tests used:
[1] = system: HCT116 cells; assay: HCT116 cell proliferation MTT assay; format: cell-based; conditions: HCT-116; HCT116 human colon carcinoma cells, MTT assay after 5 days (120 h) incubation, compound 3 uM to 0.15 nM
Description: HCT116 cells (human colon carcinoma cell line) were cultivated in RPMI 1640, 2.5% FCS, 2 mM Glutamine, 100 u/ml Penicillin, 100 ug/ml Streptomycin. For the assay the cells were seeded in 384 well plates, 1000 cells per well, in the same medium
The next day compounds (dissolved 10 mM in DMSO) were added in various concentrations ranging from 3 uM to 0.15 nM. After 5 days the MTT assay was done mainly according to the instructions of the manufacturer (Cell proliferation kit I, MTT, from Roche Molecular Biochemicals). In brief: MTT labeling reagent was added to a final concentration of 0.5 mg/ml, added and incubated for 4 hrs at 37° C., 5% CO2. During this incubation time purple formazan crystals are formed. After addition of the solubilization solution (20% SDS in 0.02 M HCl) the plates were incubated overnight at 37° C., 5% CO2. After careful mixing plates were measured in Victor 2 (scanning multiwell spectrophotometer, Wallac) at 550 nm.
A decrease in number of living cells results in a decrease in the total metabolic activity in the sample. The decrease directly correlates to the amount of purple color resulting from the solubilization of the purple formazan crystals.
Materials: • HCT116 1000 cells in 60 ul per well of 384 well plate (Greiner) • Medium: RPMI 1640, 2.5% FCS, glutamine, pen/strep. • Incubate 1 day at 37° C.
Induction: • Dilution of compound in DMSO: 3 ul 10 mM+27 ul DMSO, dilute 1:3 • Add 2 ul of compound dilution row to 95 ul of medium • Add 10 ul of compound dilution to 60 ul medium in test plate results in 0.3% DMSO per well • Incubate 120 h (5 days) at 37° C., 5% CO2
Analysis: • Add 7 ul MTT ([…]), incubate 4 h at 37° C. • Add 30 ul lysis buffer (20% SDS, 0.04N HCl) per well • Incubate overnight at 37° C.
Measurement: • Victor 2 (scanning multiwell spectrophotometer, Wallac), at 550 nm • Determination of IC50 was done using XL-fit.

Row | SMILES | IC50 [1] | melting point
1 | CN(Cc1coc(C=Cc2ccc(Cl)cc2)n1)c1ccc(CCCCn2ccnn2)cc1 [Example 15, {2-[2-(4-Chloro-phenyl)-vinyl]-oxazol-4-ylmethyl}-methyl-[4-(4-[1,2,3]triazol-1-yl-butyl)-phenyl]-amine] | > 40 nM | –
2 | C(=Cc1nc(CNc2ccc(CCCCn3ccnn3)cc2)co1)c1ccc2c(c1)OCO2 [Example 6, [2-(2-Benzo[1,3]dioxol-5-yl-vinyl)-oxazol-4-ylmethyl]-[4-(4-[1,2,3]triazol-1-yl-butyl)-phenyl]-amine] | > 40 nM | 130 to 131 °C
3 | FC(F)(F)Oc1cccc(C=Cc2nc(CNc3ccc(CCCCn4ccnn4)cc3)co2)c1 [Example 28, [4-(4-[1,2,3]Triazol-1-yl-butyl)-phenyl]-{2-[2-(3-trifluoromethoxy-phenyl)-vinyl]-oxazol-4-ylmethyl}-amine] | > 40 nM | 91 to 93 °C
4 | FC(F)(F)c1cccc(C=Cc2nc(CNc3ccc(CCCCn4ccnn4)cc3)co2)c1 [Example 26, [4-(4-[1,2,3]Triazol-1-yl-butyl)-phenyl]-{2-[2-(3-trifluoromethyl-phenyl)-vinyl]-oxazol-4-ylmethyl}-amine] | > 40 nM | –
5 | FC(F)(F)c1ccc(C=Cc2nc(CNc3ccc(CCCCn4ccnn4)cc3)co2)cc1 [Example 2, [4-(4-[1,2,3]Triazol-1-yl-butyl)-phenyl]-{2-[2-(4-trifluoromethyl-phenyl)-vinyl]-oxazol-4-ylmethyl}-amine] | < 20 nM | 113 to 115 °C
6 | FC(F)(F)Sc1ccc(C=Cc2nc(CNc3ccc(OCCCn4ccnn4)cc3)co2)cc1 [Example 17, [4-(3-[1,2,3]Triazol-1-yl-propoxy)-phenyl]-{2-[2-(4-trifluoromethylsulfanyl-phenyl)-vinyl]-oxazol-4-ylmethyl}-amine] | > 40 nM | –
7 | CN(C(=O)c1coc(C=Cc2ccc(C(F)(F)F)cc2)n1)c1ccc(CCCCn2ccnn2)cc1 [Example 12, 2-[2-(4-Trifluoromethyl-phenyl)-vinyl]-oxazole-4-carboxylic acid methyl-[4-(4-[1,2,3]triazol-1-yl-butyl)-phenyl]-amide] | 20 to 40 nM | 127 to 129 °C
8 | CN(C(=O)c1coc(C=Cc2ccc(OC(F)(F)F)cc2)n1)c1ccc(OCCCn2ccnn2)cc1 [Example 23, 2-[2-(4-Trifluoromethoxy-phenyl)-vinyl]-oxazole-4-carboxylic acid methyl-[4-(3-[1,2,3]triazol-1-yl-propoxy)-phenyl]-amide] | > 40 nM | –
9 | O=C(Nc1ccc(CCCCn2ccnn2)cc1)c1coc(C=Cc2ccc(OC(F)F)cc2)n1 [Example 31, 2-[2-(4-Difluoromethoxy-phenyl)-vinyl]-oxazole-4-carboxylic acid-[4-(4-[1,2,3]triazol-1-yl-butyl)-phenyl]-amide] | < 20 nM | –
10 | O=C(Nc1ccc(CCCCn2ccnn2)cc1)c1coc(C=Cc2ccc3c(c2)OC(F)(F)O3)n1 [Example 29, 2-[2-(2,2-Difluoro-benzo [1,3]dioxol-5-yl)-vinyl]-oxazole-4-carboxylic acid [4-(4-[1,2,3]triazol-1-yl-butyl)-phenyl]-amide] | < 20 nM | –
11 | Clc1ccc(C=Cc2nc(CNc3ccc(CCCCn4ccnn4)cc3)co2)cc1 [Example 5, {2-[2-(4-Chloro-phenyl)-vinyl]-oxazol-4-ylmethyl}-[4-(4-[1,2,3]triazol-1-yl-butyl)-phenyl]-amine] | < 20 nM | 120 to 122 °C
12 | FC(F)(F)Oc1ccc(C=Cc2nc(CNc3ccc(COCCn4ccnn4)cc3)co2)cc1 [Example 36, [4-(2-[1,2,3]Triazol-1-yl-ethoxymethyl)-phenyl]-{2-[2-(4-trifluoromethoxy-phenyl)-vinyl]-oxazol-4-ylmethyl}-amine] | < 20 nM | –
13 | CN(C(=O)c1coc(C=Cc2ccc(OC(F)F)cc2)n1)c1ccc(CCCCn2ccnn2)cc1 [Example 32, 2-[2-(4-Difluoromethoxy-phenyl)-vinyl]-oxazole-4-carboxylic acid methyl-[4-(4-[1,2,3]-triazol-1-yl-butyl)-phenyl]-amide] | > 40 nM | –
14 | FC(F)(F)c1ccc(C=Cc2nc(CNc3ccc(OCCCn4ccnn4)cc3)co2)cc1 [Example 9, [4-(3-[1,2,3]Triazol-1-yl-propoxy)-phenyl]-{2-[2-(4-trifluoromethyl-phenyl)-vinyl]-oxazol-4-ylmethyl}-amine] | < 20 nM | 134 to 136 °C
15 | Fc1cc(Cl)ccc1C=Cc1nc(CNc2ccc(CCCCn3ccnn3)cc2)co1 [Example 35, {2-[2-(4-Chloro-2-fluoro-phenyl)-vinyl]-oxazol-4-ylmethyl}-[4-(4-[1,2,3]triazol-1-yl-butyl)-phenyl]-amine] | > 40 nM | –
16 | Fc1ccc(C=Cc2nc(CNc3ccc(CCCCn4ccnn4)cc3)co2)c(F)c1 [Example 34, {2-[2-(2,4-Difluoro-phenyl)-vinyl]-oxazol-4-ylmethyl}-[4-(4-[1,2,3]triazol-1-yl-butyl)-phenyl]-amine] | < 20 nM | –
17 | CN(Cc1coc(C=Cc2ccc3c(c2)OCO3)n1)c1ccc(CCCCn2ccnn2)cc1 [Example 13, [2-(2-Benzo[1,3]dioxol-5-yl-vinyl)-oxazol-4-ylmethyl]-methyl-[4-(4-[1,2,3]triazol-1-yl-butyl)-phenyl]-amine] | > 40 nM | –
18 | O=C(Nc1ccc(OCCCn2ccnn2)cc1)c1coc(C=Cc2ccc(OC(F)(F)F)cc2)n1 [Example 20, 2-[2-(4-Trifluoromethoxy-phenyl)-vinyl]-oxazole-4-carboxylic acid [4-(3-[1,2,3]triazol-1-yl-propoxy)-phenyl]-amide] | > 40 nM | –
19 | Fc1ccc(C=Cc2nc(CNc3ccc(CCCCn4ccnn4)cc3)co2)c(C(F)(F)F)c1 [Example 27, {2-[2-(4-Fluoro-2-trifluoromethyl-phenyl)-vinyl]-oxazol-4-ylmethyl}-[4-(4-[1,2,3]triazol-1-yl-butyl)-phenyl]-amine] | > 40 nM | 109 to 111 °C
20 | FC(F)(F)Sc1ccc(C=Cc2nc(CNc3ccc(CCCCn4ccnn4)cc3)co2)cc1 [Example 8, [4-(4-[1,2,3]Triazol-1-yl-butyl)-phenyl]-{2-[2-(4-trifluoromethylsulfanyl-phenyl)-vinyl]-oxazol-4-ylmethyl}-amine] | < 20 nM | 76 to 78 °C
21 | FC(F)(F)c1ccc(C=Cc2nc(CNc3ccc(COCCn4ccnn4)cc3)co2)cc1 [Example 37, [4-(2-[1,2,3]Triazol-1-yl-ethoxymethyl)-phenyl]-{2-[2-(4-trifluoromethyl-phenyl)-vinyl]-oxazol-4-ylmethyl}-amine] | 20 to 40 nM | –
22 | Clc1ccc(C=Cc2nc(CNc3ccc(OCCCn4ccnn4)cc3)co2)cc1 [Example 18, {2-[2-(4-Chloro-phenyl)-vinyl]-oxazol-4-ylmethyl}-[4-(3-[1,2,3]triazol-1-yl-propoxy)-phenyl]-amine] | > 40 nM | –
23 | FC(F)(F)Oc1ccc(C=Cc2nc(CNc3ccc(CCCCn4ccnn4)cc3)co2)cc1 [Example 1, [4-(4-[1,2,3]Triazol-1-yl-butyl)-phenyl]-{2-[2-(4-trifluoromethoxy-phenyl)-vinyl]-oxazol-4-ylmethyl}-amine] | < 20 nM | 103 to 105 °C
24 | CN(Cc1coc(C=Cc2ccc(SC(F)(F)F)cc2)n1)c1ccc(CCCCn2ccnn2)cc1 [Example 14, Methyl-[4-(4-[1,2,3]triazol-1-yl-butyl)-phenyl]-{2-[2-(4-trifluoromethylsulfanyl-phenyl)-vinyl]-oxazol-4-ylmethyl}-amine] | < 20 nM | –
25 | O=C(Nc1ccc(CCCCn2ccnn2)cc1)c1coc(C=Cc2ccc(OC(F)(F)F)cc2)n1 [Example 21, 2-[2-(4-Trifluoromethoxy-phenyl)-vinyl]-oxazole-4-carboxylic acid [4-(4-[1,2,3]triazol-1-yl-butyl)-phenyl]-amide] | > 40 nM | –
26 | O=C(Nc1ccc(OCCCn2ccnn2)cc1)c1coc(C=Cc2ccc(C(F)(F)F)cc2)n1 [Example 19, 2-[2-(4-Trifluoromethyl-phenyl)-vinyl]-oxazole-4-carboxylic acid [4-(3-[1,2,3]triazol-1-yl-propoxy)-phenyl]-amide] | > 40 nM | –
27 | FC(F)(F)Oc1ccc(C=Cc2nc(CNc3ccc(OCCCn4ccnn4)cc3)co2)cc1 [Example 16, [4-(3-[1,2,3]Triazol-1-yl-propoxy)-phenyl]-{2-[2-(4-trifluoromethoxy-phenyl)-vinyl]-oxazol-4-ylmethyl}-amine] | > 40 nM | –
28 | CN(C(=O)c1coc(C=Cc2ccc(OC(F)(F)F)cc2)n1)c1ccc(CCCCn2ccnn2)cc1 [Example 22, 2-[2-(4-Trifluoromethoxy-phenyl)-vinyl]-oxazole-4-carboxylic acid methyl-[4-(4-[1,2,3]triazol-1-yl-butyl)-phenyl]-amide] | > 40 nM | –
